According to patent US20220153746A1, “NITROGEN OXIDE-DONATING PDE-5 AND/OR PDE-6 INHIBITOR COMPOUNDS, AND USES THEREOF” (ILDONG PHARMACEUTICAL CO., LTD., priority 2020, published 2022):
Several values for one entry are separate records, joined by “and”; a condition that tells them apart may be missing. Identical values can stand only once. Like-named read-outs stand apart in the source and are kept apart here.

Experiment: TD Phase (Groups 1 and 3): plasma and ocular tissue concentrations and pharmacokinetics of Compound 18 and its metabolite Compound 4 after once daily ocular instillation of Compound 18 nanosuspension for 7 days
Type: in vivo, New Zealand white rabbits
Details: for Metabolite/Parent AUC Ratio: MW-corrected AUC of metabolite Compound 4 / parent Compound 18
Text: This example illustrates the procedures and results for the levels of Compound 18 and its metabolite Compound 4 in plasma and ocular tissues of normotensive rabbits following ocular instillation of Compound 18 once daily for 7 consecutive days.
Twenty five (25) male New Zealand white rabbits were divided into 5 groups of varying amounts of animals per group.
The Test article, Compound 18 was formulated as a 2% nanosuspension in DI water containing 0.2% PS80 (polyoxyethylenesorbitan, monooleate (Tween 80)) and 0.4% HPMC (hydroxypropylmethylcellulose) at pH 6.77. Referred to herein as “Compound 18 nanosuspension.”
The study consisted of three groups (Groups 1-3) of 19 male rabbits (NZW) that underwent once daily morning ocular installation (1 eyedrop) for 7 consecutive days (Day 0-6). Groups 4-5 each consisted of 3 male rabbits (NZW) that were not dosed.
Blood samples (1 mL) were collected from the jugular vein at the intervals set out below for each group. The samples were then inverted several times following collection and held on wet ice until centrifuged. Samples were centrifuged within 60 minutes of collection under refrigeration (set at 5° C. for 10 minutes at 2000 g.
Group 1 (Pilot Study, terminal blood collection): blood was collected from 3 animals at 1 hour post day 7 dose of Compound 18 nanosuspension.
Group 3 (TD Phase, terminal blood collection): blood was collected from 3 animals at 0.5 hour, 3 animals at 2 hours, 3 animals at 4 hours, and 3 animals at 8 hours post day 7 dose of Compound 18 nanosuspension.
(§1) Group 1 (Pilot Study): 3 animals were terminated at 1 hour post Day 7 dose of Compound 18 nanosuspension. Following blood collection and termination, ocular tissues (aqueous humor, vitreous humor, cornea, iris/ciliary body, lens, optic nerve, retina, sclera/choroid, and trabecular meshwork) were collected from each animal and the tissue weights were recorded. Note: sclera and choroid were collected together. Iris and ciliary body were collected together.
as §1, with “3 (TD Phase):” for “1 (Pilot Study):”, “0.5 hour, 3 animals at 2 hours, 3 animals at 4 hours, and 3 animals at 8 hours” for “1 hour”
Plasma and tissue samples from treated animals (Groups 1-3) were analyzed for Compound 18 and its metabolite Compound 4 concentrations by LC-MS/MS.
Pharmacokinetic analysis was conducted using WinNonlin Version 6.2.1 (Pharsight, Mountain View, Calif.), operating as a validated software system. Noncompartmental analysis was conducted using the extravascular administration model for ocular instillation dosing.
The peak plasma and ocular tissue concentration, time to achieve peak plasma and ocular tissue concentration, half-life, and area under the plasma and ocular tissue concentration-time curve (Cmax, Tmax, T1/2, and AUC) were calculated from the TD phase combined with the pilot study mean animal plasma and ocular tissue concentrations for each sampling time/dose group for Compound 18 and its metabolite Compound 4.
BA Assay: Quantitation Range 0.05 to 100 ng/mL for Compound 18, 0.15 to 100 ng/mL for Compound 4.
3. Pipet 50 μL of each type of pre-spiked ocular tissue samples (AH/VH) for QC samples, 50 μL of incurred aqueous humor, and vitreous humor sample (if applicable) into a 96 well plate.
Ocular Tissues Homogenate Preparation: Incurred rabbit ocular tissues were weighed in Genogrinder tubes (plastic tubes with small beads) at the time of removal from the animal and stored frozen (<−70° C.) until analysis. The rabbit incurred ocular tissues were thawed on wet ice. […]

[1] = TD Phase, Group 1, 1 h, individual animals
[2] = TD Phase, Group 3, 0.5 h, individual animals
[3] = TD Phase, Group 3, 2 h, individual animals
[4] = TD Phase, Group 3, 8 h, individual animals
[5] = male, New Zealand white, rabbit, topical or ocular, 0.8 mg/kg/day, aqueous humor, Day 7, from mean concentrations
[6] = male, New Zealand white, rabbit, topical or ocular, 0.8 mg/kg/day, cornea, Day 7, from mean concentrations
[7] = male, New Zealand white, rabbit, topical or ocular, 0.8 mg/kg/day, iris/ciliary body, Day 7, from mean concentrations
[8] = male, New Zealand white, rabbit, topical or ocular, 0.8 mg/kg/day, lens, Day 7, from mean concentrations

## CCCc1nn(C)c2c(=O)[nH]c(-c3cc(S(=O)(=O)N4CC(CCCO)C4)ccc3OCC)nc12 [Compound 4, 5-(2-ethoxy-5-((3-(3-hydroxypropyl)azetidin-1-yl)sulfonyl)phenyl)-1-methyl-3-propyl-1,6-dihydro-7H-pyrazolo[4,3-d]pyrimidin-7-one]
Aqueous Humor, Day 7
  Metabolite/Parent AUC Ratio: 21700
Cornea, Day 7, Compound 18 0.8 mg/kg ocular instillation once daily, Groups 1 and 3
  AUC0-8: 10096 ng·h/g
Cornea, Day 7
  Metabolite/Parent AUC Ratio: 52.7
Iris/Ciliary Body, Day 7, Compound 18 0.8 mg/kg ocular instillation once daily, Groups 1 and 3
  AUC0-8: 1795 ng·h/g
Iris/Ciliary Body, Day 7
  Metabolite/Parent AUC Ratio: 13.1
Lens, Day 7, Compound 18 0.8 mg/kg ocular instillation once daily, Groups 1 and 3
  AUC0-8: 68.7 ng·h/g
Optic Nerve, Day 7, Compound 18 0.8 mg/kg ocular instillation once daily, Groups 1 and 3
  AUC0-8: 159 ng·h/g
Plasma, Day 7
  Metabolite/Parent AUC Ratio: 6.72
Retina, Day 7, Compound 18 0.8 mg/kg ocular instillation once daily, Groups 1 and 3
  AUC0-8: 213 ng·h/g
Sclera/Choroid, Day 7, Compound 18 0.8 mg/kg ocular instillation once daily, Groups 1 and 3
  AUC0-8: 1494 ng·h/g
[1]
  Compound 4 Plasma Conc.: 0.412 ng/mL and 1.14 ng/mL and 0.839 ng/mL
  Final Compound 4 Sclera/Choroid Conc.: 171 ng/g and 240 ng/g
TD Phase, Group 1, 1 h, individual animals, BQL set to 0
  Final Compound 4 Retina Conc.: 25.6 ng/g and 90.7 ng/g and 34.8 ng/g
TD Phase, Group 1, 1 h, individual animals, homogenate dilution factor 8
  Compound 4 Sclera/Choroid Homogenate Conc.: 21.4 ng/mL and 30.0 ng/mL
[2]
  Compound 4 Plasma Conc.: 1.03 ng/mL and 0.812 ng/mL
  Final Compound 4 Sclera/Choroid Conc.: 154 ng/g and 142 ng/g and 331 ng/g
TD Phase, Group 3, 0.5 h, individual animals, homogenate dilution factor 8
  Compound 4 Sclera/Choroid Homogenate Conc.: 19.3 ng/mL and 17.7 ng/mL and 41.4 ng/mL
[3]
  Compound 4 Plasma Conc.: BQL (BQL = Below lower limit of quantitation (0.0500 ng/mL for Compound 18 and 0.150 ng/mL for Compound 4))
  Final Compound 4 Sclera/Choroid Conc.: 121 ng/g and 234 ng/g and 88.0 ng/g
TD Phase, Group 3, 2 h, individual animals, BQL set to 0
  Final Compound 4 Retina Conc.: 118 ng/g and 23.4 ng/g and 11.4 ng/g
TD Phase, Group 3, 2 h, individual animals, homogenate dilution factor 8
  Compound 4 Sclera/Choroid Homogenate Conc.: 15.1 ng/mL and 29.2 ng/mL and 11.0 ng/mL
TD Phase, Group 3, 2 h, individual animals, homogenate dilution factor 20 (164 for animal 207671)
  Compound 4 Retina Homogenate Conc.: 0.719 ng/mL and 1.17 ng/mL and 0.568 ng/mL
TD Phase, Group 3, 4 h, individual animals
  Compound 4 Plasma Conc.: BQL (BQL = Below lower limit of quantitation (0.0500 ng/mL for Compound 18 and 0.150 ng/mL for Compound 4))
TD Phase, Group 3, 4 h, individual animals, BQL set to 0
  Final Compound 4 Retina Conc.: 16.7 ng/g and 34.6 ng/g and 14.0 ng/g
TD Phase, Group 3, 4 h, individual animals, homogenate dilution factor 20
  Compound 4 Retina Homogenate Conc.: 0.835 ng/mL and 1.73 ng/mL and 0.702 ng/mL
TD Phase, Group 3, 8 h, Mean, BQL set to 0
  Compound 4 Plasma Conc.: BQL (BQL = Below lower limit of quantitation (0.0500 ng/mL for Compound 18 and 0.150 ng/mL for Compound 4))
[4]
  Compound 4 Plasma Conc.: BQL (BQL = Below lower limit of quantitation (0.0500 ng/mL for Compound 18 and 0.150 ng/mL for Compound 4))
  Compound 4 Vitreous Humor Conc.: BQL (BQL = Below lower limit of quantitation (0.0500 ng/mL for Compound 18 and 0.150 ng/mL for Compound 4))
TD Phase, Group 3, 8 h, individual animals, BQL set to 0
  Final Compound 4 Retina Conc.: 8.90 ng/g and 0 ng/g and 8.34 ng/g
TD Phase, Group 3, 8 h, individual animals, homogenate dilution factor 20
  Compound 4 Retina Homogenate Conc.: BQL^a (BQL = Below lower limit of quantitation (0.0500 ng/mL for Compound 18 and 0.150 ng/mL for Compound 4)) and 0.417 ng/mL
TD phase plasma and ocular tissues
  tissue of highest concentration: highest in cornea
Trabecular Meshwork, Day 7, Compound 18 0.8 mg/kg ocular instillation once daily, Groups 1 and 3
  AUC0-8: 533 ng·h/g
Vitreous Humor, Day 7
  Metabolite/Parent AUC Ratio: 447
cornea, Day 7, from mean concentrations
  AUC0-8: 10096 ng·h/g
iris/ciliary body, Day 7, from mean concentrations
  AUC0-8: 1795 ng·h/g
lens, Day 7, from mean concentrations
  AUC0-8: 68.7 ng·h/g
lens, TD phase
  Metabolite/parent AUC ratio (Compound 4 vs Compound 18): 63.0
male, New Zealand white, rabbit, plasma, other: ocular instillation, 0.8 mg/kg/day, TD Phase, Group 3, 0.5 h, Mean, BQL set to 0, read-out: Compound 4 Plasma Conc.
  concentration at 0.5 h: 1.02 ng/mL
male, New Zealand white, rabbit, plasma, other: ocular instillation, 0.8 mg/kg/day, TD Phase, Group 3, 0.5 h, individual animals, read-out: Compound 4 Plasma Conc.
  concentration at 0.5 h: 1.22 ng/mL
male, New Zealand white, rabbit, retina homogenate, other: ocular instillation (eye drop), 0.798 mg/kg/day, TD Phase, Group 3, 8 h, individual animals, homogenate dilution factor 20, read-out: Compound 4 Retina Homogenate Conc.
  concentration at 8 h: 0.445 ng/mL
male, New Zealand white, rabbit, retina, other: ocular instillation (eye drop), 0.798 mg/kg/day, TD Phase, Group 1, 1 h, Mean, read-out: Final Compound 4 Retina Conc.
  concentration at 1 h: 50.2 ng/g
male, New Zealand white, rabbit, retina, other: ocular instillation (eye drop), 0.798 mg/kg/day, TD Phase, Group 3, 2 h, Mean, read-out: Final Compound 4 Retina Conc.
  concentration at 2 h: 50.9 ng/g
male, New Zealand white, rabbit, retina, other: ocular instillation (eye drop), 0.798 mg/kg/day, TD Phase, Group 3, 4 h, Mean, read-out: Final Compound 4 Retina Conc.
  concentration at 4 h: 21.8 ng/g
male, New Zealand white, rabbit, retina, other: ocular instillation (eye drop), 0.798 mg/kg/day, TD Phase, Group 3, 8 h, Mean, read-out: Final Compound 4 Retina Conc.
  concentration at 8 h: 5.75 ng/g
male, New Zealand white, rabbit, sclera/choroid homogenate, other: ocular instillation (eye drop), 0.798 mg/kg/day, TD Phase, Group 1, 1 h, individual animals, homogenate dilution factor 8, read-out: Compound 4 Sclera/Choroid Homogenate Conc.
  concentration at 1 h: 17 ng/mL
male, New Zealand white, rabbit, sclera/choroid, other: ocular instillation (eye drop), 0.798 mg/kg/day, TD Phase, Group 1, 1 h, Mean, read-out: Final Compound 4 Sclera/Choroid Conc.
  concentration at 1 h: 182 ng/g
male, New Zealand white, rabbit, sclera/choroid, other: ocular instillation (eye drop), 0.798 mg/kg/day, TD Phase, Group 1, 1 h, individual animals, read-out: Final Compound 4 Sclera/Choroid Conc.
  concentration at 1 h: 136 ng/g
male, New Zealand white, rabbit, sclera/choroid, other: ocular instillation (eye drop), 0.798 mg/kg/day, TD Phase, Group 3, 0.5 h, Mean, read-out: Final Compound 4 Sclera/Choroid Conc.
  concentration at 0.5 h: 209 ng/g
male, New Zealand white, rabbit, sclera/choroid, other: ocular instillation (eye drop), 0.798 mg/kg/day, TD Phase, Group 3, 2 h, Mean, read-out: Final Compound 4 Sclera/Choroid Conc.
  concentration at 2 h: 148 ng/g
[5]
  Cmax: 124 ng/mL
  Tmax: 1 h
  half-life: 1.95 h
male, New Zealand white, rabbit, topical or ocular, 0.8 mg/kg/day, aqueous humor, Day 7, from mean concentrations, read-out: AUC0-8
  AUC(0-t): 314 ng·h/mL
[6]
  Cmax: 3600 ng/g
  Tmax: 1 h
  half-life: 2.63 h
[7]
  Cmax: 980 ng/g
  Tmax: 1 h
  half-life: 2.11 h
[8]
  Cmax: 18.1 ng/g
  Tmax: 1 h
  half-life: 2.25 h
